Measured values published in the supplement of paper PMC10307832.

Assays:
Assay in all cases: relative viability (nuclei count vs DMSO), 5 days (fraction); higher = more cells survive
[1] = compound: COc1cc2nc(N3CCCN(C)CC3)nc(NC3CCN(Cc4ccccc4)CC3)c2cc1OC + Cc1cc(Nc2cc(N3CCN(C)CC3)nc(Sc3ccc(NC(=O)C4CC4)cc3)n2)n[nH]1 [Tozasertib] (partner 0.1 µM)
In short: (§1)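 The day after seeding in 1536-well plates, lung cancer cell lines were treated by pin tool with a single drug, or with a fixed anchor-drug dose together with five library-drug doses (not always all listed) in √10 steps. After 5 days, a combined fix-and-stain solution (final 0.05% Triton X-100, 1% formaldehyde, 1 ug/ml Hoechst) was added. Nuclei counted on 4× images gave relative viability as treated counts over vehicle counts, reported as the median of duplicate plates.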

AZD6482 + Navitoclax = compound: Cc1cc([C@@H](C)Nc2ccccc2C(=O)O)c2nc(N3CCOCC3)cc(=O)n2c1 [AZD6482] + CC1(C)CCC(c2ccc(Cl)cc2)=C(CN2CCN(c3ccc(C(=O)NS(=O)(=O)c4ccc(N[C@H](CCN5CCOCC5)CSc5ccccc5)c(S(=O)(=O)C(F)(F)F)c4)cc3)CC2)C1 [Navitoclax] (partner 0.5 µM)
In short: as §1

AZD6482 + Crizotinib = compound: Cc1cc([C@@H](C)Nc2ccccc2C(=O)O)c2nc(N3CCOCC3)cc(=O)n2c1 [AZD6482] + C[C@@H](Oc1cc(-c2cnn(C3CCNCC3)c2)cnc1N)c1c(Cl)ccc(F)c1Cl [Crizotinib] (partner 1 µM)
In short: as §1

AZD6482 + Pemetrexed = compound: Cc1cc([C@@H](C)Nc2ccccc2C(=O)O)c2nc(N3CCOCC3)cc(=O)n2c1 [AZD6482] + Nc1nc2[nH]cc(CCc3ccc(C(=O)N[C@@H](CCC(=O)O)C(=O)O)cc3)c2c(=O)[nH]1 [Pemetrexed] (partner 0.2 µM)
In short: as §1

Cell Line | relative viability ([1]; first compound 0.2 µM) | relative viability ([1]; first compound 0.6325 µM) | relative viability ([1]; first compound 2 µM) | relative viability ([1]; first compound 6.325 µM) | relative viability (AZD6482 + Navitoclax; first compound 0.08 µM) | relative viability (AZD6482 + Navitoclax; first compound 0.253 µM) | relative viability (AZD6482 + Navitoclax; first compound 0.8 µM) | relative viability (AZD6482 + Navitoclax; first compound 2.53 µM) | relative viability (AZD6482 + Navitoclax; first compound 8 µM) | relative viability (AZD6482 + Crizotinib; first compound 0.08 µM) | relative viability (AZD6482 + Crizotinib; first compound 0.253 µM) | relative viability (AZD6482 + Crizotinib; first compound 0.8 µM) | relative viability (AZD6482 + Crizotinib; first compound 2.53 µM) | relative viability (AZD6482 + Crizotinib; first compound 8 µM) | relative viability (AZD6482 + Pemetrexed; first compound 0.08 µM) | relative viability (AZD6482 + Pemetrexed; first compound 0.253 µM) | relative viability (AZD6482 + Pemetrexed; first compound 0.8 µM) | relative viability (AZD6482 + Pemetrexed; first compound 2.53 µM) | relative viability (AZD6482 + Pemetrexed; first compound 8 µM)
NCI-H2228 | 0.254 | 0.311 | 0.265 | 0.257 | 0.738 | 0.963 | 0.803 | 0.634 | 0.616 | 0.368 | 0.46 | 0.308 | 0.254 | 0.275 | 0.325 | 0.3 | 0.325 | 0.303 | 0.309
NCI-H647 | 0.486 | 0.272 | 0.366 | 0.207 | 0.949 | – | 0.929 | 0.555 | 0.806 | 0.902 | – | 0.748 | 0.479 | 0.648 | 0.154 | 0.161 | 0.191 | 0.16 | 0.158
SK-MES-1 | 0.882 | 0.912 | 0.852 | 0.1 | 1.08 | 1.17 | 0.923 | 0.493 | 0.572 | 0.854 | 0.838 | 0.86 | 0.419 | 0.439 | 0.84 | 0.974 | 0.876 | 0.394 | 0.532
NCI-H2170 | 0.696 | 0.703 | 0.788 | 0.752 | 0.502 | 0.558 | 0.594 | 0.444 | 0.476 | 1.11 | 1.15 | 1.23 | 1.05 | 0.851 | 0.257 | 0.242 | 0.265 | 0.252 | 0.251
NCI-H2085 | 0.884 | 0.895 | 0.971 | 0.612 | 0.803 | 0.585 | 0.538 | 0.395 | 0.462 | 0.818 | 0.537 | 0.519 | 0.316 | 0.358 | 0.567 | 0.384 | 0.407 | 0.317 | 0.299
SW 1573 | 0.196 | 0.165 | 0.246 | 0.128 | 0.887 | 0.86 | 0.941 | 0.56 | 0.653 | 0.781 | 0.696 | 0.733 | 0.548 | 0.466 | 0.881 | 0.822 | 0.827 | 0.723 | 0.75
NCI-H441 | 0.607 | 0.623 | 0.581 | 0.69 | 0.752 | 0.59 | 0.563 | 0.702 | 0.632 | 0.651 | 0.689 | 0.782 | 0.443 | 0.507 | 0.261 | 0.267 | 0.276 | – | 0.282
LOU-NH91 | 0.67 | 0.703 | 0.649 | 0.769 | 0.579 | 0.651 | 0.659 | 0.441 | 0.518 | 0.709 | 0.725 | 0.74 | 0.564 | 0.563 | 0.376 | 0.373 | 0.444 | 0.521 | 0.493
NCI-H3122 | 0.429 | 0.413 | 0.543 | 0.536 | 0.96 | 1.01 | 1.07 | 0.894 | 0.97 | 0.243 | 0.285 | 0.27 | 0.212 | 0.25 | 0.191 | 0.198 | 0.2 | 0.189 | 0.189
NCI-H460 | 0.535 | 0.399 | 0.361 | 0.625 | 0.968 | 1.08 | 1.07 | 0.859 | 0.694 | 0.874 | 0.644 | 0.99 | 0.6 | 0.471 | 0.0644 | 0.0667 | 0.0599 | 0.0555 | 0.0589
NCI-H1734 | 0.277 | 0.249 | 0.26 | 0.217 | 0.73 | 0.604 | 0.726 | 0.449 | 0.776 | 0.627 | 0.733 | 0.622 | 0.47 | 0.471 | 0.408 | 0.442 | 0.408 | 0.396 | 0.397
LXF-289 | 0.184 | 0.195 | 0.205 | 0.211 | 0.974 | 0.955 | 0.997 | 0.954 | 0.854 | 0.813 | 0.837 | 0.898 | 0.794 | 0.736 | 0.678 | 0.94 | 1.08 | 0.849 | 0.922
H3255 | 0.604 | 0.851 | 0.641 | 0.742 | 0.501 | 0.523 | 0.352 | 0.314 | 0.243 | 0.869 | 0.819 | 0.841 | 0.534 | 0.714 | 0.535 | 0.577 | 0.583 | 0.464 | 0.507
201T | 0.973 | 0.908 | 0.946 | 0.924 | 1.22 | 1.17 | 1.19 | 1.12 | 1.17 | 0.998 | 0.991 | 1.09 | 0.944 | 1.04 | 0.31 | 0.295 | 0.27 | 0.314 | 0.342
NCI-H2126 | 0.818 | 0.874 | 0.868 | 0.826 | 0.744 | 0.671 | 0.727 | 0.571 | 0.543 | 0.954 | 0.987 | 1.01 | 0.787 | 0.777 | 0.683 | 0.677 | 0.692 | 0.411 | 0.434
HOP-62 | 0.406 | 0.371 | 0.401 | 0.441 | 1.19 | 1.17 | 1.28 | 0.791 | 1.12 | 1.07 | 0.897 | 0.609 | 0.782 | 0.751 | 0.335 | 0.386 | 0.363 | 0.335 | 0.379
CAL-12T | 0.363 | 0.381 | 0.365 | 0.323 | 1.13 | 1.29 | 1.29 | 0.648 | 1.23 | 0.572 | 0.662 | 0.853 | 0.455 | 0.794 | 1.08 | 1.12 | 1.16 | 0.867 | 1.31
